Experimental data taken from PMC11758266, “Lipid-Modulated, Graduated Inhibition of N-Glycosylation Pathway Priming Suggests Wide Tolerance of ER Proteostasis to Stress” (ACS Central Science, 2024).
“Also recorded” adds a separate entry of the source.

What was measured:
ATF4 [1] = experiment: HEK-ATF4 high-content immunofluorescence imaging assay (ER stress); assay type: cell-based, human; settings: for ER stress response in the phenotypic assay (in words): HEK293 cells, 6 h, nuclear ATF4 as marker
Method: Here, the nuclear localization of the transcription factor ATF4 (which leads to subsequent expression of CHOP and cell death) was used as a phenotypic marker of ER stress (Figure 3A). Use of multi(384)-well plate format allowed wild-type HEK cells to be treated with analogues over a titrating concentration range of 0.5 nM to […] for 6 h in a quantitative manner (Figure 3C). After fixation with paraformaldehyde, high-content cellular fluorescence microscopy imaging was used to both determine the site and quantify the location of ATF4[32] (Figure 3B,C). Thus, immunofluorescent staining of the cells exploited a primary rabbit anti-ATF4 (D4B8) antibody followed by a solution containing a secondary Alexa Fluor 488-labeled goat anti-rabbit IgG along with Hoechst 33342 nuclei stain. In this way, confocal fluorescence microscopy at excitation wavelengths of 405 and 488 nm produced, as a direct primary readout, the intensity of ATF4 located in the nucleus as well as the ratio of ATF4 located between the nucleus (colocalized with Hoechst) and cytoplasm (see Figure 3B,C for representative images and the Supporting Information for channel-by-channel images). Concurrent readout of the number of stained nuclei (Hoechst nuclei stain) in live cells was also used as an internal cytotoxicity measure. This high-content method allowed detailed quantitative cellular dose responses to be determined with precision (Figure 3D). […] Consistent with ATF4 as a driver of apoptosis, this also drove cell death at higher concentrations (EC50 ∼ 10 μM) similar to those determined previously.[33] This therefore identified a clear dose–response window of more than 2 orders of magnitude over such key downstream events.
Figure 3 High-content phenotypic screen for putative ER stress inducers. (A) Schematic of the screening process. 12,000 HEK293 WT cells per well were plated into a 384-well plate and incubated at 37 °C for 24 h. Compounds were serially diluted and added to the plate and incubated for 6 h at 37 °C, at which point the cells were fixed with 4% PFA in PBS. The plates were then submitted to indirect ATF4 immunofluorescence, in which the plate was incubated with a primary anti-ATF4 (D4B8) antibody, followed by Alexa Fluor 488-labeled goat anti-rabbit secondary antibody and Hoechst 33342 dye. Plates were imaged using an OPERA-Phenix high-content imaging platform with fluorescence excitation at 405 and 488 nm. The images were analyzed, and the nuclear intensity of ATF4 for each cell was quantitatively determined (gray filled circles, left-hand axis in (D)) as well as the count of live cells (black squares, right-hand axis in (D)). Created in BioRender. https://BioRender.com/z32w873 (B) Representative section of imaging (red = nuclei, green = ATF4) for a given cellular population at a single dose (here exposed to tunicamycin at 41.2 nM). (C) Representative series panels of dose–response images after exposure to three different Tun-XE,YG analogues and DMSO control. (D) Corresponding resulting quantification of the high-throughput microscopy assay displaying the live cell count (black, right axis) and the nuclear intensity of ATF4 (gray, left axis) of tunicamycin and two lipid altered analogues, one with a large lipid at the gating position (Tun-9E,9G) and other with a short lipid at this position (Tun-8E,2G). See the Supporting Information for full details.
Supplementary Phenotypic Screening Methods
Tunicamycin analogues were tested in the HEK-ATF4 High Content Imaging assay to assess their ER stress generating ability. Wild-type HEK293 cells were plated in 384-well imaging assay plates at a density of 12,000 cells per well in growth medium (containing DMEM/F12, 10% FBS, 2 mM L-Glutamine, 100 U/mL Penicillin - 100µg/mL Streptomycin) and incubated at 37°C, 5% CO2. 24-hrs later, the medium was changed to 50 µl assay medium per well (DMEM/F12, 0.3% FBS, 2mM L-Glutamine, 100 U/mL Penicillin – 100 µg/mL […]
Streptomycin). […]

His-tagged IgG-Fc domain = experiment: In cell glycoprotein inhibition assay (IgG-Fc expression, SDS-PAGE and Western blot); assay type: cell-based, human; settings: HEK293T cells, 3 days, analogue 10 µM down to 0.5 nM (Tun-8E,2G 300 µM down to 15 nM), Figure S13
ATF4 [2] = experiment: ATF4 high-content imaging assay in primary human dermal fibroblasts; assay type: cell-based; settings: 6 h, Figures S8–S12
Method: A targeted panel of tunicamycin analogues was tested in the ATF4 High Content Imaging assay to assess their ER stress generating ability in a primary cell line. Normal adult human dermal fibroblasts (NHDF-Ad, Lonza) were plated in a 96-well Phenoplate (PerkinElmer) at a seeding density of 10,000 cells per well in fibroblast growth medium (containing fibroblast basal medium, 10% FBS, 0.1% insulin, 0.1% hFGF-B, 0.1% Gentamicin/Amphotericin) and incubated at 37°C, 5% CO2. Treatment with pre-diluted compounds was performed after 24 hrs with final concentrations ranging from 10 µM – 5 nM (final DMSO concentration was 0.3%). Low control (0.3% DMSO final conc.) and high control (0.3 µM tunicamycin final conc.) wells were again included for assay normalization. Treated cells were incubated for 6 hrs at 37°C, 5% CO2 before fixing (4% PFA in PBS, 20 min at room temperature followed by washing (3x) with PBS). Direct ATF4 immunofluorescence staining was then performed, whereby cells were treated with a Coralite Plus 488-conjugated ATF4 Polyclonal antibody (CL488-10835, Proteintech) in a 1:100 dilution of Perm-block buffer (10% FBS, 0.3% TritonX-100 in PBS) for 2 hrs. Nuclei staining was then performed with DRAQ5 dye (ab108410, Abcam) at 1:1000 in PBS. Plates were imaged on a Leica SP8 confocal microscope equipped with 488 nm and 633 nm excitation and images were analysed using script-based algorithms as described for HEK cells above. […]

Compound | ER stress response in the phenotypic assay (in words) (ATF4 [1]) | glycosylation state of expressed IgG-Fc (in words) (His-tagged IgG-Fc domain) | increase in ATF4 (in words) (ATF4 [2]) | glycosylation state of expressed IgG-Fc (in words) (His-tagged IgG-Fc domain; listed as Tun) | EC50 (ATF4 [1]; wild-type HEK293 cells, 6 h treatment, read-out: EC50, increase in ATF4 in the nucleus) [nM]
CCCCCCCCC(=O)N[C@H]1[C@H](O[C@H]2O[C@H](CO)[C@@H](O)[C@H](O)[C@H]2NC(=O)CC(C)C)O[C@H](C[C@@H](O)[C@H]2O[C@@H](n3ccc(=O)[nH]c3=O)[C@H](O)[C@@H]2O)[C@H](O)[C@@H]1O [Tun-9E,i5G] | did not induce ER stress | – | – | – | –
CCCCCCCC(=O)N[C@H]1[C@H](O[C@H]2O[C@H](CO)[C@@H](O)[C@H](O)[C@H]2NC(C)=O)O[C@H](C[C@@H](O)[C@H]2O[C@@H](n3ccc(=O)[nH]c3=O)[C@H](O)[C@@H]2O)[C@H](O)[C@@H]1O [Tun-8E,2G] | did not induce ER stress | unglycosylated IgG Fc protein is observed; also recorded: expression of non-glycosylated IgG-Fc | only Tun itself leads to an increase in ATF4 | – | –
CCCCCCCCC(=O)N[C@H]1[C@H](O[C@H]2O[C@H](CO)[C@@H](O)[C@H](O)[C@H]2NC(=O)CCCCCCCC)O[C@H](C[C@@H](O)[C@H]2O[C@@H](n3ccc(=O)[nH]c3=O)[C@H](O)[C@@H]2O)[C@H](O)[C@@H]1O [Tun-9E,9G] | did not induce any ER stress response | expression of intact glycosylated protein | only Tun itself leads to an increase in ATF4 | – | –
CCCCCCCCC(=O)N[C@H]1[C@@H](O[C@@H]2O[C@H](C[C@@H](O)[C@H]3O[C@@H](n4ccc(=O)[nH]c4=O)[C@H](O)[C@@H]3O)[C@H](O)[C@H](O)[C@H]2NC(=O)CCC)O[C@H](CO)[C@@H](O)[C@@H]1O [Tun-4E,9G] | did not induce any ER stress response | – | – | – | –
tunicamycin [reference compound] | clear ER stress response | unglycosylated IgG Fc protein is observed | leads to an increase in ATF4 | expression of non-glycosylated IgG-Fc | 44 ± 3.2
